Paper PMC9241695, “Selective Metal Chelation by a Thiosemicarbazone Derivative Interferes with Mitochondrial Respiration and Ribosome Biogenesis in Candida albicans” (Microbiology Spectrum, 2022)
Values after ≈ are worked out from the molar mass of the structure shown.

Key:
C. albicans SC5314 [1] = test: Respiratory activity by CTC staining; assay type: cell-based, Candida albicans; conditions: 6 h, 1 mM CTC; 19ak 0.125-1 μg/mL, TPEN 0.05-0.4 μg/mL
Method: h (for C. albicans, C. krusei, C. tropicalis, C. parapsilosis) or 48 h (for C. neoformans, A. fumigatus). The MIC was determined based on visible growth inhibition compared with the control. All experiments were performed in duplicate.
Cytotoxicity testing. The cell lines HK2 and 16HBE were used to evaluate the cytotoxicity of 19ak, 19k and 19t. Cells in DMEM containing 10% fetal bovine serum (Gibco) were seeded in 96-well tissue culture plates at a cell density of 1 × 10^4 cells/mL and incubated for 24 h to allow adhesion. The supernatant was then replaced with fresh DMEM containing various concentrations of 19ak, 19k and 19t. […]
The effects of the compounds on cell proliferation were detected by measuring the absorbance at 570 nm in a microplate reader (BioTek, VT, USA). […]
the fluorescent complex […] (CTF) is commonly used to indicate the intensity of microbial respiration. C. albicans SC5314 treated with 19ak was stained with 1 mM CTC for 30 min, followed by flow cytometry analysis of respiratory activity based on fluorescence intensity. Images of cells were obtained using a fluorescence microscope (IX71, Olympus, Tokyo, Japan). […] After an additional 2 h of incubation, OD450 in each well was detected with a microplate reader. […]
Mitochondrial complex activity was expressed as nmol/min/mg protein. […]

C. albicans SC5314 [2] = test: Antifungal susceptibility testing, microbroth dilution MIC; assay type: cell-based; conditions: Candida albicans, SC5314, read-out: MIC against C. albicans SC5314 (Fig. S2 legend)
Text: Compound library. The thiosemicarbazone derivatives Triapine and COTI-2 were purchased from Med Chem Express (MCE). The other 87 thiosemicarbazones used in this study were previously synthesized by our collaborators (1, 2). Their structures are shown in Table 1 and Table S1 to help the reader clearly understand the relationship between structure and activity.
Strains and culture conditions. Clinically derived C. albicans isolates, including G5, F5, and Gu5, were kindly provided by Professor Joachim Morschhäuser of the University of Würzburg. Other clinical C. albicans isolates were kindly donated by Professor Qingguo Qi of Shandong University and Qianfoshan Hospital of Shandong Province Other Candida strains were obtained from Jinan Central Hospital.
The zap1 mutant and its complemented strain were kindly provided by Professor Aaron P. Mitchell of Carnegie Mellon University (3). The C. neoformans strains used in this study was kindly donated by Professor Guojian Liao of Southwest University and A. fumigatus strain used in this study was provided by Professor Ling Lu of Nanjing Normal University. Before in vitro and in vivo experiments, all C. albicans strains were grown on YPD agar plates. After culturing at 30°C for 24 h, colonies of each strain were cultured in liquid YPD medium at 30°C with continuous shaking […]
Antifungal susceptibility testing. To determine in vitro antifungal activities, the microbroth dilution method was carried out in RPMI1640 medium according to the guidelines of the Clinical and Laboratory Standards Institute (4, 5). The initial concentration in RPMI1640 medium was 1 × 10^3 CFU/mL for the C. albicans and C. neoformans suspensions but 1 × 10^4 CFU/mL for A. fumigatus. The range of final drug concentrations was 0.0156–64 μg/mL. The plates were incubated at35°C for 24 […]
h (for C. albicans, C. krusei, C. tropicalis, C. parapsilosis) or 48 h (for C. neoformans, A. fumigatus). The MIC was determined based on visible growth inhibition compared with the control. All experiments were performed in duplicate. […]

C. albicans SC5314 [3] = test: qPCR of genes associated with ribosome biogenesis; assay type: cell-based, Candida albicans; conditions: CPX 0.5 or 2 μg/mL 8 h; DFO 64 µg/mL 6 h; TPEN 0.05 or 0.2 μg/mL 6 h
Method: Determination of SOD activity. SOD activity was measured using the Superoxide Dismutase Activity Assay Kit (Njjcbio, Nanjing, China) following the manufacturer's instructions. An overnight culture of C. albicans SC5314 was adjusted to 1 × 10^7 cells/mL with RPMI1640 medium and treated with 19ak at a final concentration of 0, 0.125, 0.25, 0.5, or 1 μg/mL for 6 h. After collection by centrifugation, the cells were broken by glass beads in extraction buffer and centrifuged at 4°C. The absorbance of the supernatant of each sample was measured with a microplate reader at450 nm.
Determination of catalase (CAT) activity. CAT activity was measured by using a Catalase Assay Kit (Solarbio, Beijing, China) following the manufacturer's instructions. An overnight culture of C. albicans SC5314 was adjusted to 1 × 10^6 cells/mL with RPMI1640 medium and treated as described above for SOD activity.
The decomposition of H2O2 is directly accompanied by a decrease in absorbance at 240 nm, and the difference in absorbance per unit time (ΔA240) is a measure of […]
Quantitative real-time polymerase chain reaction (qPCR) analysis. C. albicans SC5314 cells (1 × 10^6 cells/mL) were incubated with or without 19ak (0.5,2 […]
Total RNA was extracted using the hot phenol method, and the RNA quality was analyzed using a spectrophotometer (Eppendorf, Hamburg, Germany). The RNA was converted to cDNA using a cDNA Reverse
Transcription kit (Accurate Biotechnology, Hunan, China). PCR detection based on SYBR Green was performed on an Eppendorf real-time PCR system (Eppendorf, […]
Drug resistance study. Drug resistance studies were carried out by repeatedly treating C. albicans with an antifungal agent followed by MIC determination using […]

In the case of `c1ccc(CN(CCN(Cc2ccccn2)Cc2ccccn2)Cc2ccccn2)nc1` [TPEN, N,N,N′,N′-tetrakis (2-pyridylmethyl) ethylenediamine, reference compound], the “Mitochondrial respiratory activity (CTC fluorescence intensity)” value (C. albicans SC5314 [1]) is reported as “failed to observe reduced mitochondrial respiration”, the MIC (C. albicans SC5314 [2]) is reported as 0.05 µg/mL (≈ 0.118 µM) and the “Expression of genes associated with ribosome biogenesis (qPCR)” value (C. albicans SC5314 [3]) is reported as “downregulated”.
